According to PubChem BioAssay (NCI):
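Each compound was tested at five concentrations against cells in 96-well plates for 48 hours. At the TGI there is no net growth.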

Test system: NCI-H23 lung
Assay: inhibition of tumour cell growth, NCI panel, 48 h

SMILES	TGI [µM]
Cc1ccc(N2C(=O)CS/C2=C(\C#N)c2nc3ccccc3[nH]2)cc1	> 100
CN1CNc2nc(N)n(C)c(=O)c2C1	> 10
CCOc1ccc(/C(Cl)=C(\C=O)c2ccc(OC)c(OC)c2)cc1OCC	> 100
COC(=O)C(C#CCCCCC#CC(NC(=O)OCc1ccccc1)(C(=O)OC)C(F)(F)F)(NC(=O)OCc1ccccc1)C(F)(F)F (stereo not drawn)	> 100
N#C/C(c1nc2ccccc2[nH]1)=c1\s/c(=C/c2ccc(Cl)cc2)c(=O)n1-c1ccccc1	> 100
CCOP(=O)(OCC)C(Nc1ccc(Br)cc1)c1cccc([N+](=O)[O-])c1 (stereo not drawn)	53
O=C1c2ccccc2OP(=O)(OCC(F)(F)F)OC1(C(F)(F)F)C(F)(F)F (stereo not drawn)	> 100
COc1ccc(N=Cc2ccc(N(CCC#N)S(=O)(=O)c3ccccc3)cc2)cc1	> 100
CCOC(=O)/C=C/n1c2ccccc2c(=O)c2ccccc21	> 100
Cc1ccc(NC2=CC(=O)C(NO)c3ccccc32)cc1 (stereo not drawn)	4.22
Nc1nc(SCc2ccc([N+](=O)[O-])cc2)nc2c1ncn2C1OC(CO)C(O)C1O (stereo not drawn)	> 100
CCOC(=O)c1c(N)sc2c1C(C)(C(=O)OCC)CC2 (stereo not drawn)	> 100
C=CCC(N(C)C(=O)[C@H](Cc1ccccc1)NC(=O)OCc1ccccc1)P(=O)(Oc1ccccc1)Oc1ccccc1 (stereo partly drawn)	> 100

Test system: NCI-H460 lung
Assay: inhibition of tumour cell growth, NCI panel, 48 h

SMILES	TGI [µM]
Cc1ccc(N2C(=O)CS/C2=C(\C#N)c2nc3ccccc3[nH]2)cc1	> 100
CN1CNc2nc(N)n(C)c(=O)c2C1	> 10
CCOc1ccc(/C(Cl)=C(\C=O)c2ccc(OC)c(OC)c2)cc1OCC	> 100
COC(=O)C(C#CCCCCC#CC(NC(=O)OCc1ccccc1)(C(=O)OC)C(F)(F)F)(NC(=O)OCc1ccccc1)C(F)(F)F (stereo not drawn)	> 100
N#C/C(c1nc2ccccc2[nH]1)=c1\s/c(=C/c2ccc(Cl)cc2)c(=O)n1-c1ccccc1	> 100
CCOP(=O)(OCC)C(Nc1ccc(Br)cc1)c1cccc([N+](=O)[O-])c1 (stereo not drawn)	29.3
COC(=O)CC1NC(=O)[C@@H]1C(C)O (stereo partly drawn)	> 100
O=C1c2ccccc2OP(=O)(OCC(F)(F)F)OC1(C(F)(F)F)C(F)(F)F (stereo not drawn)	> 100
COc1ccc(N=Cc2ccc(N(CCC#N)S(=O)(=O)c3ccccc3)cc2)cc1	> 100
CCOC(=O)/C=C/n1c2ccccc2c(=O)c2ccccc21	> 100
Cc1ccc(NC2=CC(=O)C(NO)c3ccccc32)cc1 (stereo not drawn)	13.3
Nc1nc(SCc2ccc([N+](=O)[O-])cc2)nc2c1ncn2C1OC(CO)C(O)C1O (stereo not drawn)	> 100
CCOC(=O)c1c(N)sc2c1C(C)(C(=O)OCC)CC2 (stereo not drawn)	> 100
C=CCC(N(C)C(=O)[C@H](Cc1ccccc1)NC(=O)OCc1ccccc1)P(=O)(Oc1ccccc1)Oc1ccccc1 (stereo partly drawn)	> 100

Test system: OVCAR-4 ovarian
Assay: inhibition of tumour cell growth, NCI panel, 48 h

SMILES	TGI [µM]
Cc1ccc(N2C(=O)CS/C2=C(\C#N)c2nc3ccccc3[nH]2)cc1	> 100
CN1CNc2nc(N)n(C)c(=O)c2C1	> 10
CCOc1ccc(/C(Cl)=C(\C=O)c2ccc(OC)c(OC)c2)cc1OCC	> 100
COC(=O)C(C#CCCCCC#CC(NC(=O)OCc1ccccc1)(C(=O)OC)C(F)(F)F)(NC(=O)OCc1ccccc1)C(F)(F)F (stereo not drawn)	> 100
N#C/C(c1nc2ccccc2[nH]1)=c1\s/c(=C/c2ccc(Cl)cc2)c(=O)n1-c1ccccc1	> 100
CCOP(=O)(OCC)C(Nc1ccc(Br)cc1)c1cccc([N+](=O)[O-])c1 (stereo not drawn)	> 100
COC(=O)CC1NC(=O)[C@@H]1C(C)O (stereo partly drawn)	> 100
O=C1c2ccccc2OP(=O)(OCC(F)(F)F)OC1(C(F)(F)F)C(F)(F)F (stereo not drawn)	> 100
COc1ccc(N=Cc2ccc(N(CCC#N)S(=O)(=O)c3ccccc3)cc2)cc1	> 100
CCOC(=O)/C=C/n1c2ccccc2c(=O)c2ccccc21	> 100
Cc1ccc(NC2=CC(=O)C(NO)c3ccccc32)cc1 (stereo not drawn)	9.71
Nc1nc(SCc2ccc([N+](=O)[O-])cc2)nc2c1ncn2C1OC(CO)C(O)C1O (stereo not drawn)	> 100

Test system: OVCAR-5 ovarian
Assay: inhibition of tumour cell growth, NCI panel, 48 h

SMILES	TGI [µM]
Cc1ccc(N2C(=O)CS/C2=C(\C#N)c2nc3ccccc3[nH]2)cc1	> 100
CN1CNc2nc(N)n(C)c(=O)c2C1	> 10
CCOc1ccc(/C(Cl)=C(\C=O)c2ccc(OC)c(OC)c2)cc1OCC	> 100
COC(=O)C(C#CCCCCC#CC(NC(=O)OCc1ccccc1)(C(=O)OC)C(F)(F)F)(NC(=O)OCc1ccccc1)C(F)(F)F (stereo not drawn)	> 100
N#C/C(c1nc2ccccc2[nH]1)=c1\s/c(=C/c2ccc(Cl)cc2)c(=O)n1-c1ccccc1	> 100
CCOP(=O)(OCC)C(Nc1ccc(Br)cc1)c1cccc([N+](=O)[O-])c1 (stereo not drawn)	67.6
O=C1c2ccccc2OP(=O)(OCC(F)(F)F)OC1(C(F)(F)F)C(F)(F)F (stereo not drawn)	> 100
COc1ccc(N=Cc2ccc(N(CCC#N)S(=O)(=O)c3ccccc3)cc2)cc1	> 100
Cc1ccc(NC2=CC(=O)C(NO)c3ccccc32)cc1 (stereo not drawn)	25
Nc1nc(SCc2ccc([N+](=O)[O-])cc2)nc2c1ncn2C1OC(CO)C(O)C1O (stereo not drawn)	> 100
CCOC(=O)c1c(N)sc2c1C(C)(C(=O)OCC)CC2 (stereo not drawn)	> 100

Test system: PC-3 prostate
Assay: inhibition of tumour cell growth, NCI panel, 48 h

SMILES	TGI [µM]
CCOC(=O)c1c(N)sc2c1C(C)(C(=O)OCC)CC2 (stereo not drawn)	> 100

Test system: RXF 393 renal
Assay: inhibition of tumour cell growth, NCI panel, 48 h

SMILES	TGI [µM]
CN1CNc2nc(N)n(C)c(=O)c2C1	> 10
CCOc1ccc(/C(Cl)=C(\C=O)c2ccc(OC)c(OC)c2)cc1OCC	> 100
COC(=O)C(C#CCCCCC#CC(NC(=O)OCc1ccccc1)(C(=O)OC)C(F)(F)F)(NC(=O)OCc1ccccc1)C(F)(F)F (stereo not drawn)	> 100
CCOP(=O)(OCC)C(Nc1ccc(Br)cc1)c1cccc([N+](=O)[O-])c1 (stereo not drawn)	31.5
COC(=O)CC1NC(=O)[C@@H]1C(C)O (stereo partly drawn)	> 100
O=C1c2ccccc2OP(=O)(OCC(F)(F)F)OC1(C(F)(F)F)C(F)(F)F (stereo not drawn)	> 100
COc1ccc(N=Cc2ccc(N(CCC#N)S(=O)(=O)c3ccccc3)cc2)cc1	> 100
CCOC(=O)/C=C/n1c2ccccc2c(=O)c2ccccc21	> 100
Cc1ccc(NC2=CC(=O)C(NO)c3ccccc32)cc1 (stereo not drawn)	12.7
Nc1nc(SCc2ccc([N+](=O)[O-])cc2)nc2c1ncn2C1OC(CO)C(O)C1O (stereo not drawn)	> 100
CCOC(=O)c1c(N)sc2c1C(C)(C(=O)OCC)CC2 (stereo not drawn)	> 100
C=CCC(N(C)C(=O)[C@H](Cc1ccccc1)NC(=O)OCc1ccccc1)P(=O)(Oc1ccccc1)Oc1ccccc1 (stereo partly drawn)	> 100

Test system: SK-MEL-2 melanoma
Assay: inhibition of tumour cell growth, NCI panel, 48 h

SMILES	TGI [µM]
Cc1ccc(N2C(=O)CS/C2=C(\C#N)c2nc3ccccc3[nH]2)cc1	> 100
CN1CNc2nc(N)n(C)c(=O)c2C1	> 10
CCOc1ccc(/C(Cl)=C(\C=O)c2ccc(OC)c(OC)c2)cc1OCC	> 100
N#C/C(c1nc2ccccc2[nH]1)=c1\s/c(=C/c2ccc(Cl)cc2)c(=O)n1-c1ccccc1	> 100
CCOP(=O)(OCC)C(Nc1ccc(Br)cc1)c1cccc([N+](=O)[O-])c1 (stereo not drawn)	31.4
COC(=O)CC1NC(=O)[C@@H]1C(C)O (stereo partly drawn)	> 100
O=C1c2ccccc2OP(=O)(OCC(F)(F)F)OC1(C(F)(F)F)C(F)(F)F (stereo not drawn)	> 100
COc1ccc(N=Cc2ccc(N(CCC#N)S(=O)(=O)c3ccccc3)cc2)cc1	> 100
CCOC(=O)/C=C/n1c2ccccc2c(=O)c2ccccc21	> 100
Cc1ccc(NC2=CC(=O)C(NO)c3ccccc32)cc1 (stereo not drawn)	8.99
CCOC(=O)c1c(N)sc2c1C(C)(C(=O)OCC)CC2 (stereo not drawn)	> 100
C=CCC(N(C)C(=O)[C@H](Cc1ccccc1)NC(=O)OCc1ccccc1)P(=O)(Oc1ccccc1)Oc1ccccc1 (stereo partly drawn)	> 100

Test system: UACC-257 melanoma
Assay: inhibition of tumour cell growth, NCI panel, 48 h

SMILES	TGI [µM]
Cc1ccc(N2C(=O)CS/C2=C(\C#N)c2nc3ccccc3[nH]2)cc1	> 100
CN1CNc2nc(N)n(C)c(=O)c2C1	> 10
CCOc1ccc(/C(Cl)=C(\C=O)c2ccc(OC)c(OC)c2)cc1OCC	> 100
COC(=O)C(C#CCCCCC#CC(NC(=O)OCc1ccccc1)(C(=O)OC)C(F)(F)F)(NC(=O)OCc1ccccc1)C(F)(F)F (stereo not drawn)	> 100
N#C/C(c1nc2ccccc2[nH]1)=c1\s/c(=C/c2ccc(Cl)cc2)c(=O)n1-c1ccccc1	> 100
COC(=O)CC1NC(=O)[C@@H]1C(C)O (stereo partly drawn)	> 100
O=C1c2ccccc2OP(=O)(OCC(F)(F)F)OC1(C(F)(F)F)C(F)(F)F (stereo not drawn)	> 100
COc1ccc(N=Cc2ccc(N(CCC#N)S(=O)(=O)c3ccccc3)cc2)cc1	> 100
CCOC(=O)/C=C/n1c2ccccc2c(=O)c2ccccc21	> 100
Cc1ccc(NC2=CC(=O)C(NO)c3ccccc32)cc1 (stereo not drawn)	3.84
Nc1nc(SCc2ccc([N+](=O)[O-])cc2)nc2c1ncn2C1OC(CO)C(O)C1O (stereo not drawn)	> 100
CCOC(=O)c1c(N)sc2c1C(C)(C(=O)OCC)CC2 (stereo not drawn)	> 100
C=CCC(N(C)C(=O)[C@H](Cc1ccccc1)NC(=O)OCc1ccccc1)P(=O)(Oc1ccccc1)Oc1ccccc1 (stereo partly drawn)	> 100
